# Assay results reported in ChEMBL document CHEMBL5108067, “Discovery of Potent OTUB1/USP8 Dual Inhibitors Targeting Proteostasis in Non-Small-Cell Lung Cancer” (J Med Chem, 2022).
# Active and inactive are the calls of the source. The rule behind the calls is not given here.
# Target: T1, Ubiquitin thioesterase OTUB1 (Homo sapiens, UniProt Q96FW1)
# Test: Destabilization of N-terminal His-6 tagged OTUB1 (40 to 271 residues) (unknown origin) expressed in Escherichia coli BL21 (DE3) cells assessed as reduction in melting temperature at 200 uM measured for 2 hrs in presence of dithiothreitol by SYPRO orange dye based thermal shift assay
# Settings: not given
# T1 sequence (Q96FW1 whole entry, the tested form may be a part): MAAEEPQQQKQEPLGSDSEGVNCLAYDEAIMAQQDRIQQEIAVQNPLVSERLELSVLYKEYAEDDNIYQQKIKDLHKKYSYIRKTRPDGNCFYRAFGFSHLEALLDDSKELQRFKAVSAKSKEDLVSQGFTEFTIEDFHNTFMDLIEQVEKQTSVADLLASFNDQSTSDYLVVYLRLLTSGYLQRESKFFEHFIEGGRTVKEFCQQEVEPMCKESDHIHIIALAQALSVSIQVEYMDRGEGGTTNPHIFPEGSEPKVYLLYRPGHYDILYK
row,ΔTm,SMILES
1,2.5 °C,CN1CC[C@@H](Oc2ccc(F)c(-c3nc4c(o3)C(=O)c3ccccc3C4=O)c2Cl)C1
2,1 °C,CN1CC[C@@H](Oc2ccc(Cl)c(-c3nc4c(o3)C(=O)c3ccccc3C4=O)c2F)C1

# Target: T1, Ubiquitin thioesterase OTUB1
# Test: Inhibition of N-terminal His-6 tagged OTUB1 (40 to 271 residues) (unknown origin) expressed in Escherichia coli BL21 (DE3) cells at 10 nM using Ub-Rho measured after 0.5 to 3 hrs by fluorescence based Plate reader method relative to control
# Settings: time 0.5-3 hrs, values are per cent of control
row,residual activity,SMILES
1,10.5%,CN1CC[C@@H](Oc2ccc(F)c(-c3nc4c(o3)C(=O)c3ccccc3C4=O)c2Cl)C1
2,10.7%,CN1CC[C@@H](Oc2ccc(Cl)c(-c3nc4c(o3)C(=O)c3ccccc3C4=O)c2F)C1

# Target: T1, Ubiquitin thioesterase OTUB1
# Test: Inhibition of N-terminal His-6 tagged OTUB1 (40 to 271 residues) (unknown origin) expressed in Escherichia coli BL21 (DE3) cells at 100 nM using Ub-Rho measured after 0.5 to 3 hrs by fluorescence based Plate reader method relative to control
# Settings: time 0.5-3 hrs, values are per cent of control
row,residual activity,SMILES
1,7.3%,CN1CC[C@@H](Oc2ccc(F)c(-c3nc4c(o3)C(=O)c3ccccc3C4=O)c2Cl)C1
2,7.4%,CN1CC[C@@H](Oc2ccc(Cl)c(-c3nc4c(o3)C(=O)c3ccccc3C4=O)c2F)C1

# Target: T2, Ubiquitin carboxyl-terminal hydrolase 8 (Homo sapiens) (UniProt P40818)
# T2 sequence (whole entry): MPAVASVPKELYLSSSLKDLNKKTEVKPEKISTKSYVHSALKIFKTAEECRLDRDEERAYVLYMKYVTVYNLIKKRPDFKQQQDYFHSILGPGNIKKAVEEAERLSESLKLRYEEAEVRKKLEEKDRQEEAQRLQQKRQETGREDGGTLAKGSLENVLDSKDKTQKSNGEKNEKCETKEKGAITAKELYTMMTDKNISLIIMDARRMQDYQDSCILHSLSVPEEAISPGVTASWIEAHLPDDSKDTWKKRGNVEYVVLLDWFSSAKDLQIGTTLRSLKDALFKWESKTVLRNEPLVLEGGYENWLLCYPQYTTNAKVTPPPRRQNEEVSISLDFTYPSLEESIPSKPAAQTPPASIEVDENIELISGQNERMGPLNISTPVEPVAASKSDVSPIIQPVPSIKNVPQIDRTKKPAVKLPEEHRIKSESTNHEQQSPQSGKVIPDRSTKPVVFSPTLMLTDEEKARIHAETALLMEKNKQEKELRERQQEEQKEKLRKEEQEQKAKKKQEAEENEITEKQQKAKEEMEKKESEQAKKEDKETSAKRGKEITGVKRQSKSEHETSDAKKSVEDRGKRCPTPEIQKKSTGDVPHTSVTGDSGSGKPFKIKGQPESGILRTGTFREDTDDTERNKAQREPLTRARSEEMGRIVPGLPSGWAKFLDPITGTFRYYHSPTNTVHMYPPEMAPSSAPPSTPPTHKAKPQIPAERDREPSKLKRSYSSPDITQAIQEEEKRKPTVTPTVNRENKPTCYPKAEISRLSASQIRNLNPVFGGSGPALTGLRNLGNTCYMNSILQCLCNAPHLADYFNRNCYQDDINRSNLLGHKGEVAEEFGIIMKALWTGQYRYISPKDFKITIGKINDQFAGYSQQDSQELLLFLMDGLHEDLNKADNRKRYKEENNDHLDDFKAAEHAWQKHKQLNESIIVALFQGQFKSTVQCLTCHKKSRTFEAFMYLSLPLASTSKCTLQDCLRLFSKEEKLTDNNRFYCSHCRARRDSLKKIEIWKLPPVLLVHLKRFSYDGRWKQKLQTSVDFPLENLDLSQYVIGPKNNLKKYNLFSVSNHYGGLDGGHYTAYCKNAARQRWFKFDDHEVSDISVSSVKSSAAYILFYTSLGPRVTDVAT
# Test: Inhibition of N-terminal His-6 tagged USP8 (734 to 1110 residues) (unknown origin) expressed in Escherichia coli BL21 (DE3) cells at 10 nM measured after 3 hrs by fluorescence based Plate reader method relative to control
# Settings: values are per cent of control
row,residual activity,SMILES
1,21.7%,CN1CC[C@@H](Oc2ccc(F)c(-c3nc4c(o3)C(=O)c3ccccc3C4=O)c2Cl)C1
2,37.2%,CN1CC[C@@H](Oc2ccc(Cl)c(-c3nc4c(o3)C(=O)c3ccccc3C4=O)c2F)C1

# Target: T2, Ubiquitin carboxyl-terminal hydrolase 8 (Homo sapiens)
# Test: Inhibition of N-terminal His-6 tagged USP8 (734 to 1110 residues) (unknown origin) expressed in Escherichia coli BL21 (DE3) cells at 100 nM measured after 3 hrs by fluorescence based Plate reader method relative to control
# Settings: values are per cent of control
row,residual activity,SMILES
1,16.5%,CN1CC[C@@H](Oc2ccc(F)c(-c3nc4c(o3)C(=O)c3ccccc3C4=O)c2Cl)C1
2,20.5%,CN1CC[C@@H](Oc2ccc(Cl)c(-c3nc4c(o3)C(=O)c3ccccc3C4=O)c2F)C1

# Tested on: not listed separately
# Test: Aqueous solubility of the compound measured after 24 hr by […] LC-MS/MS analysis
# Type: physicochemical
# Settings: buffer
row,solubility,SMILES
1,Soluble,CN1CC[C@@H](Oc2ccc(F)c(-c3nc4c(o3)C(=O)c3ccccc3C4=O)c2Cl)C1
2,Soluble,CN1CC[C@@H](Oc2ccc(Cl)c(-c3nc4c(o3)C(=O)c3ccccc3C4=O)c2F)C1

# Target: T1, Ubiquitin thioesterase OTUB1
# Test: Inhibition of N-terminal His-6 tagged OTUB1 (40 to 271 residues) (unknown origin) expressed in Escherichia coli BL21 (DE3) cells using Ub-Rho measured after 0.5 to 3 hrs by fluorescence based Plate reader method
# Settings: not given
row,IC50,SMILES
1,0.17 nM,CN1CC[C@@H](Oc2ccc(F)c(-c3nc4c(o3)C(=O)c3ccccc3C4=O)c2Cl)C1
2,0.42 nM,CN1CC[C@@H](Oc2ccc(Cl)c(-c3nc4c(o3)C(=O)c3ccccc3C4=O)c2F)C1

# Target: T3, Ubiquitin carboxyl-terminal hydrolase 8 (Homo sapiens, UniProt P40818)
# T3 sequence (P40818 whole entry): T2 sequence (whole entry)
# Test: Inhibition of N-terminal His-6 tagged USP8 (734 to 1110 residues) (unknown origin) expressed in Escherichia coli BL21 (DE3) cells measured after 3 hrs by fluorescence based Plate reader method
# Settings: not given
row,IC50,SMILES
1,0.28 nM,CN1CC[C@@H](Oc2ccc(F)c(-c3nc4c(o3)C(=O)c3ccccc3C4=O)c2Cl)C1
2,2 nM,CN1CC[C@@H](Oc2ccc(Cl)c(-c3nc4c(o3)C(=O)c3ccccc3C4=O)c2F)C1

# Target: Ubiquitin carboxyl-terminal hydrolase 7 (Homo sapiens, UniProt Q93009)
# Test: Inhibition of USP7 (unknown origin) using Ub-Rho measured after 0.5 to 3 hrs
# Settings: not given
# Sequence of Ubiquitin carboxyl-terminal hydrolase 7 (Q93009 whole entry): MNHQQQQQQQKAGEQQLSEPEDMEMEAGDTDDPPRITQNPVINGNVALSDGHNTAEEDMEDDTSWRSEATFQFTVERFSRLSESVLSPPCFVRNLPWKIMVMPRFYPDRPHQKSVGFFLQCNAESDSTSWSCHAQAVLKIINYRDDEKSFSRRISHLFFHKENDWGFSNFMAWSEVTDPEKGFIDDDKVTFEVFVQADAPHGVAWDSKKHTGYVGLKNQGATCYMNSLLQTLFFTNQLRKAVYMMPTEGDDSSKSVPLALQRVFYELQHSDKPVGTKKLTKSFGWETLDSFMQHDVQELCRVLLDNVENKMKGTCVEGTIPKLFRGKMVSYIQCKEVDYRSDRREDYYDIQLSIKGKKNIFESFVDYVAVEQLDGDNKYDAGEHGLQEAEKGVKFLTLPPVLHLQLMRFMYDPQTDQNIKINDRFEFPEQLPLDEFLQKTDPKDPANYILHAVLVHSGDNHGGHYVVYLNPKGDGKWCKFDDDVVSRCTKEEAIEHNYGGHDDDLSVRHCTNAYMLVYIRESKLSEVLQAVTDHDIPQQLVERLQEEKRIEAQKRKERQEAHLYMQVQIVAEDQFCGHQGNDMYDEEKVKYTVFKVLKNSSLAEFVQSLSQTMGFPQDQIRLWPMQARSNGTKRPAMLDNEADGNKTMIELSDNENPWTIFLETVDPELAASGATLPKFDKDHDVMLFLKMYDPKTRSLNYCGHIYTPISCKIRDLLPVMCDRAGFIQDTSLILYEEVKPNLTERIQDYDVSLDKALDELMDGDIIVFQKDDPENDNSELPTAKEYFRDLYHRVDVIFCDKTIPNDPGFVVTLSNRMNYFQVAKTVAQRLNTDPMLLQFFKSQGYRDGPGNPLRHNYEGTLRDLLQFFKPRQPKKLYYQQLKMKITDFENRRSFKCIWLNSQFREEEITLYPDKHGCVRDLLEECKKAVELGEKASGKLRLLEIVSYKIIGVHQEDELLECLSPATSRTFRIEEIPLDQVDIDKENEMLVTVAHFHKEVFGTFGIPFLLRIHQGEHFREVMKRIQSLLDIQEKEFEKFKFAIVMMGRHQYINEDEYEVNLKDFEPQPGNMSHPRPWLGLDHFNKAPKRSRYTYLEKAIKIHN
row,IC50,SMILES
1,> 10000 nM,CN1CC[C@@H](Oc2ccc(F)c(-c3nc4c(o3)C(=O)c3ccccc3C4=O)c2Cl)C1
2,> 10000 nM,CN1CC[C@@H](Oc2ccc(Cl)c(-c3nc4c(o3)C(=O)c3ccccc3C4=O)c2F)C1

# Target: Ataxin-3 (Homo sapiens, UniProt P54252)
# Test: Inhibition of Ataxin-3 (unknown origin) using Ub-Rho measured after 0.5 to 3 hrs
# Settings: not given
# Sequence of Ataxin-3 (P54252 whole entry): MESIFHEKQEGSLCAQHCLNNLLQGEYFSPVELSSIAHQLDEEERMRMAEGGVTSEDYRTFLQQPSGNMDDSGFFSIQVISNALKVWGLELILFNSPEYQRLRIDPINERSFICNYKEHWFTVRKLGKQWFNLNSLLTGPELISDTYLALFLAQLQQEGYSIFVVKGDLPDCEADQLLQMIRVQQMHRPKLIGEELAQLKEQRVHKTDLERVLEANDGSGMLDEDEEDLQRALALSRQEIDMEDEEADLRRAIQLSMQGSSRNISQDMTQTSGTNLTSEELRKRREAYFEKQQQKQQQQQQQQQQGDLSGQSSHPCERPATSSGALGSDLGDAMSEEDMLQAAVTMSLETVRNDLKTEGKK
row,SMILES,IC50
1,CN1CC[C@@H](Oc2ccc(F)c(-c3nc4c(o3)C(=O)c3ccccc3C4=O)c2Cl)C1,> 10000 nM
2,CN1CC[C@@H](Oc2ccc(Cl)c(-c3nc4c(o3)C(=O)c3ccccc3C4=O)c2F)C1,> 10000 nM

# Tested on: NCI-H1975
# Test: Antiproliferative activity against human NCI-H1975 cells harboring wild type KRAS incubated for 72 hrs by MTT assay
# Type: functional, cell-based
# Settings: NCI-H1975, 72 h
row,IC50,SMILES
1,118 nM,CN1CC[C@@H](Oc2ccc(F)c(-c3nc4c(o3)C(=O)c3ccccc3C4=O)c2Cl)C1
2,121 nM,CN1CC[C@@H](Oc2ccc(Cl)c(-c3nc4c(o3)C(=O)c3ccccc3C4=O)c2F)C1

# Tested on: EBC-1
# Test: Antiproliferative activity against human EBC-1 cells harboring wild type KRAS incubated for 72 hrs by MTT assay
# Type: functional, cell-based
# Settings: EBC-1, 72 h
row,SMILES,IC50
1,CN1CC[C@@H](Oc2ccc(F)c(-c3nc4c(o3)C(=O)c3ccccc3C4=O)c2Cl)C1,172 nM
2,CN1CC[C@@H](Oc2ccc(Cl)c(-c3nc4c(o3)C(=O)c3ccccc3C4=O)c2F)C1,176 nM

# Tested on: NCI-H1703
# Test: Antiproliferative activity against human NCI-H1703 cells harboring wild type KRAS incubated for 72 hrs by MTT assay
# Type: functional, cell-based
# Settings: NCI-H1703, 72 h
row,IC50,SMILES
1,145 nM,CN1CC[C@@H](Oc2ccc(F)c(-c3nc4c(o3)C(=O)c3ccccc3C4=O)c2Cl)C1
2,173 nM,CN1CC[C@@H](Oc2ccc(Cl)c(-c3nc4c(o3)C(=O)c3ccccc3C4=O)c2F)C1

# Tested on: NCI-H23
# Test: Antiproliferative activity against human NCI-H23 cells harboring KRAS mutant incubated for 72 hrs by MTT assay
# Type: functional, cell-based
# Settings: NCI-H23, 72 h
row,IC50,SMILES
1,431 nM,CN1CC[C@@H](Oc2ccc(F)c(-c3nc4c(o3)C(=O)c3ccccc3C4=O)c2Cl)C1
2,423 nM,CN1CC[C@@H](Oc2ccc(Cl)c(-c3nc4c(o3)C(=O)c3ccccc3C4=O)c2F)C1

# Tested on: not listed separately
# Test: Half life in ICR mouse at 10 mg/kg, po measured upto 1440 mins by LC-MS/MS analysis
# Type: ADME, organism-based
# Settings: in vivo
row,half-life,SMILES
1,1.75 h,CN1CC[C@@H](Oc2ccc(F)c(-c3nc4c(o3)C(=O)c3ccccc3C4=O)c2Cl)C1

# Tested on: not listed separately
# Test: Tmax in ICR mouse at 10 mg/kg, po measured upto 1440 mins by LC-MS/MS analysis
# Type: ADME, organism-based
# Settings: in vivo
row,Tmax,SMILES
1,0.33 h,CN1CC[C@@H](Oc2ccc(F)c(-c3nc4c(o3)C(=O)c3ccccc3C4=O)c2Cl)C1

# Tested on: not listed separately
# Test: Cmax in ICR mouse at 10 mg/kg, po measured upto 1440 mins by LC-MS/MS analysis
# Type: ADME, organism-based
# Parameters: dose 10 mg/kg, time < 1440 min, route po
# Settings: in vivo
row,Cmax,SMILES
1,4270 ng/mL,CN1CC[C@@H](Oc2ccc(F)c(-c3nc4c(o3)C(=O)c3ccccc3C4=O)c2Cl)C1

# Tested on: not listed separately
# Test: AUC in ICR mouse at 1 mg/kg, iv measured upto 1440 mins by LC-MS/MS analysis
# Type: ADME, organism-based
# Parameters: time < 1440 min, dose 1 mg/kg, route iv
# Settings: in vivo, 24 h
row,AUC,SMILES
1,1345 ng·h/mL,CN1CC[C@@H](Oc2ccc(F)c(-c3nc4c(o3)C(=O)c3ccccc3C4=O)c2Cl)C1

# Tested on: not listed separately
# Test: AUC in ICR mouse at 10 mg/kg, po measured upto 1440 mins by LC-MS/MS analysis
# Type: ADME, organism-based
# Parameters: time < 1440 min, dose 10 mg/kg, route po
# Settings: in vivo
row,AUC at 24 h,SMILES
1,3750 ng·h/mL,CN1CC[C@@H](Oc2ccc(F)c(-c3nc4c(o3)C(=O)c3ccccc3C4=O)c2Cl)C1

# Tested on: not listed separately
# Test: Volume of distribution at steady state in ICR mouse at 1 mg/kg, iv measured upto 1440 mins by LC-MS/MS analysis
# Type: ADME, organism-based
# Settings: in vivo, 24 h
row,Vdss,SMILES
1,0.77 L/kg,CN1CC[C@@H](Oc2ccc(F)c(-c3nc4c(o3)C(=O)c3ccccc3C4=O)c2Cl)C1

# Tested on: not listed separately
# Test: Oral bioavailability in ICR mouse at 10 mg/kg measured upto 1440 mins by LC-MS/MS analysis
# Type: ADME, organism-based
# Settings: in vivo
row,bioavailability,SMILES
1,27.9%,CN1CC[C@@H](Oc2ccc(F)c(-c3nc4c(o3)C(=O)c3ccccc3C4=O)c2Cl)C1

# Target: T1, Ubiquitin thioesterase OTUB1
# Test: Inhibition of OTUB1 in human NCI-H1975 cells assessed as reduction in UBE2N protein level at 500 nM measured for 24 hrs by immunoblotting analysis
# Type: cell-based
# Settings: not given
row,inhibition,SMILES
1,Active,CN1CC[C@@H](Oc2ccc(F)c(-c3nc4c(o3)C(=O)c3ccccc3C4=O)c2Cl)C1

# Target: T2, Ubiquitin carboxyl-terminal hydrolase 8 (Homo sapiens)
# Test: Inhibition of USP8 in human NCI-H1975 cells assessed as reduction in EGFR protein level at 500 nM measured for 24 hrs by immunoblotting analysis
# Type: cell-based
# Settings: not given
row,inhibition,SMILES
1,Active,CN1CC[C@@H](Oc2ccc(F)c(-c3nc4c(o3)C(=O)c3ccccc3C4=O)c2Cl)C1
